Data taken from ChEMBL document CHEMBL1123029, “Synthesis and biological evaluation of phosphonamidate peptide inhibitors of enkephalinase and angiotensin-converting enzyme” (J Med Chem, 1985).

Biological target: T1, Neprilysin (Rattus norvegicus, UniProt P07861)
T1 sequence (P07861 whole entry): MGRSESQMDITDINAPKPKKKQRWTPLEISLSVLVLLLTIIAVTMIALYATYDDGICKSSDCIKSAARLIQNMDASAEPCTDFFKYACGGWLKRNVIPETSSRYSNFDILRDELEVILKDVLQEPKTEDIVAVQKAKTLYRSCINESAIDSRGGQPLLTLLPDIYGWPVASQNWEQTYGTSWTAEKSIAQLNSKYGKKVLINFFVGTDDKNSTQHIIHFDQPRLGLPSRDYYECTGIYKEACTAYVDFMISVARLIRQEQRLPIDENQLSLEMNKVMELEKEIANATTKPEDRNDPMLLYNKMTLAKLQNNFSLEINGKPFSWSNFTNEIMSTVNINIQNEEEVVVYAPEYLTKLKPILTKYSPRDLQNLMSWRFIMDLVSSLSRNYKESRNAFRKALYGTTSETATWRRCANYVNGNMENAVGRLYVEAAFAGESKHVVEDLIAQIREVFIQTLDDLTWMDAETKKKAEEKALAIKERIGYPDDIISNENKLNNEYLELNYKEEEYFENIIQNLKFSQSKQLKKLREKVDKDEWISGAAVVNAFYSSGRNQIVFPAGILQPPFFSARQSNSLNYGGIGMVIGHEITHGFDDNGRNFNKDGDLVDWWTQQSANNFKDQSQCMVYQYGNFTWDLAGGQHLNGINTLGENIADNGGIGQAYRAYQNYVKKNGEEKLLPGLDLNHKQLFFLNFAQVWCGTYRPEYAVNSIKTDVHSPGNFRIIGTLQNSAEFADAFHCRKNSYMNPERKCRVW
Experiment: Binding affinity towards enkephalinase (metalloendopeptidase, E.C.3.4.24.11) of rat kidney

Structure (SMILES)	Ki [µM]
CCOP(=O)(CNC(C)=O)NC(Cc1ccccc1)NC(CCSC)C(=O)O (configuration not stated)	160
CC(C)CC(NC(Cc1ccccc1)NP(=O)(O)CNC(=O)c1ccccc1)C(=O)O (configuration not stated)	10.6
CC(C)CC(NC(Cc1ccccc1)NP(=O)(O)CNC(=O)Cc1ccccc1)C(=O)O (configuration not stated)	80.2
CC(C)CC(NC(Cc1ccccc1)NP(=O)(O)CNC(=O)CCc1ccccc1)C(=O)O (configuration not stated)	1210
CSCCC(NC(Cc1ccccc1)NP(=O)(O)CNC(C)=O)C(=O)O (configuration not stated)	0.14
CC(=O)NCP(=O)(O)NC(Cc1ccccc1)NC(CC(C)C)C(=O)O (configuration not stated)	0.85
CC(C)C[C@H](NP(=O)(O)O[C@@H]1O[C@@H](C)[C@H](O)[C@@H](O)[C@H]1O)C(=O)N[C@@H](Cc1c[nH]c2ccccc12)C(=O)O [PHOSPHORAMIDON]	0.004
